Key:
Experiment in all cases: biochemical
Parameters in all cases: DiscoverX KinomeScan competition binding assay across human kinases; per cent of control at 10 and 100 uM
CAMKK2 = CAMKK2 (Homo sapiens, UniProt Q96RR4); settings: competition binding, % of control; read-out: Percent Control (100 uM Levosimendan)
In short: (§1)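 KinomeScan competition binding was run across a human kinase panel at 10 μM and 100 μM levosimendan. Results are %control = (test − positive control)/(negative control − positive control) × 100.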

SGK2 = SGK2 (Homo sapiens, UniProt Q9HBY8); settings: competition binding, % of control; read-out: Percent Control (100 uM Levosimendan)
In short: as §1

[1] = biological target: T1, RSK3(Kin.Dom.2-C-terminal) (Homo sapiens, UniProt Q15349); settings: competition binding, % of control; read-out: Percent Control (100 uM Levosimendan)
T1 construct: gene RPS6KA2; Kin.Dom.2-C-terminal
T1 sequence (Q15349 whole entry): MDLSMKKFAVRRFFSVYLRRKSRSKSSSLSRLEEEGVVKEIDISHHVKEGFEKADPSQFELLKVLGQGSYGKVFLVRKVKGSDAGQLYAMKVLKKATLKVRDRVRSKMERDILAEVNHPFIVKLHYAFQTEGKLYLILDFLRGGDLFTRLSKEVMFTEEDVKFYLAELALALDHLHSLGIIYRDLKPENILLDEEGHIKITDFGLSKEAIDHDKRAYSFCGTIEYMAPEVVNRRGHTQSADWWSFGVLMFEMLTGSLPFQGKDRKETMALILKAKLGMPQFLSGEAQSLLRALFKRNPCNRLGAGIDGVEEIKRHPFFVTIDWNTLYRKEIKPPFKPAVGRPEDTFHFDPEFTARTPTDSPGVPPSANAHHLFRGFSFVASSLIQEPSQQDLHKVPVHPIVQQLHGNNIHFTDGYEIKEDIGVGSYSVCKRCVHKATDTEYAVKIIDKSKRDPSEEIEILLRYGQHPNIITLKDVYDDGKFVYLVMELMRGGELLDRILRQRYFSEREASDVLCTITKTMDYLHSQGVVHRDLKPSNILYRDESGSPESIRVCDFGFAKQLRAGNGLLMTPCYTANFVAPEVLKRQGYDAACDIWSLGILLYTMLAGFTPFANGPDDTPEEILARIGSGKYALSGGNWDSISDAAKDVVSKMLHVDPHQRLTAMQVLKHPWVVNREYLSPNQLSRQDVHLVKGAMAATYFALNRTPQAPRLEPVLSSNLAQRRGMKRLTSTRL
In short: as §1

PLK2 = PLK2 (Homo sapiens, UniProt Q9NYY3); settings: competition binding, % of control; read-out: Percent Control (100 uM Levosimendan)
In short: as §1

EPHB2 = EPHB2 (Homo sapiens, UniProt P29323); settings: competition binding, % of control; read-out: Percent Control (100 uM Levosimendan)
In short: as §1

PHKG2 = PHKG2 (Homo sapiens, UniProt P15735); settings: competition binding, % of control
PHKG2, sequence (P15735 whole entry): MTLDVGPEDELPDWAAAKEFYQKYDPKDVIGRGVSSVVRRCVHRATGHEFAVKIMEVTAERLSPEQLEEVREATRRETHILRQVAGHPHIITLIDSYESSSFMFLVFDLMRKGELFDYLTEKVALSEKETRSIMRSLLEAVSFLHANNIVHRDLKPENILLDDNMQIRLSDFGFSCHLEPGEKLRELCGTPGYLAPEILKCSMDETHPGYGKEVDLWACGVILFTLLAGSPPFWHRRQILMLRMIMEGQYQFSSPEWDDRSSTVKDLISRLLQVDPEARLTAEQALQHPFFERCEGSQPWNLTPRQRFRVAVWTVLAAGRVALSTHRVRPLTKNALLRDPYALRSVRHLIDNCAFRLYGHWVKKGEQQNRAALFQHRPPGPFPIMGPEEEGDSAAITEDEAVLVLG
In short: as §1

VRK2 = VRK2 (Homo sapiens, UniProt Q86Y07); settings: competition binding, % of control; read-out: Percent Control (100 uM Levosimendan)
In short: as §1

SRPK2 = SRPK2 (Homo sapiens, UniProt P78362); settings: competition binding, % of control; read-out: Percent Control (100 uM Levosimendan)
SRPK2, sequence (P78362 whole entry): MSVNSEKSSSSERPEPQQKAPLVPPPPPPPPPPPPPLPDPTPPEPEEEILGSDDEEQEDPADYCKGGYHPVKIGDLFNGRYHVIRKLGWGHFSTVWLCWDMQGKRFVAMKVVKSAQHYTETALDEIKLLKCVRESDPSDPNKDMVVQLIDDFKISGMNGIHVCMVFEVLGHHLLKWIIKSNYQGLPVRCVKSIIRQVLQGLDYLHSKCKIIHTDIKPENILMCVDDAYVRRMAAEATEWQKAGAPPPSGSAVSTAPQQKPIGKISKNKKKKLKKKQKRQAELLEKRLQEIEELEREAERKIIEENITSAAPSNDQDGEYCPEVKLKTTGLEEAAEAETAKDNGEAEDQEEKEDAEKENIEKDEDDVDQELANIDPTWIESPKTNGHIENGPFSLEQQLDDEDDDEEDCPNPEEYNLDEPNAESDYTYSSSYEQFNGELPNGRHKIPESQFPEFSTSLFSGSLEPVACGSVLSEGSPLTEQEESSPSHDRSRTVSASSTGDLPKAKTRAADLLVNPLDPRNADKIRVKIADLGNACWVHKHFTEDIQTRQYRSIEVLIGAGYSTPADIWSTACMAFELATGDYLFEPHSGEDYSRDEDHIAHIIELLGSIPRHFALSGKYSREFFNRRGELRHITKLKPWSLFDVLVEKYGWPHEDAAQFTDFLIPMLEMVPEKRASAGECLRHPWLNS
In short: as §1

TYRO3 = TYRO3 (Homo sapiens, UniProt Q06418); settings: competition binding, % of control; read-out: Percent Control (100 uM Levosimendan)
TYRO3, sequence (Q06418 whole entry): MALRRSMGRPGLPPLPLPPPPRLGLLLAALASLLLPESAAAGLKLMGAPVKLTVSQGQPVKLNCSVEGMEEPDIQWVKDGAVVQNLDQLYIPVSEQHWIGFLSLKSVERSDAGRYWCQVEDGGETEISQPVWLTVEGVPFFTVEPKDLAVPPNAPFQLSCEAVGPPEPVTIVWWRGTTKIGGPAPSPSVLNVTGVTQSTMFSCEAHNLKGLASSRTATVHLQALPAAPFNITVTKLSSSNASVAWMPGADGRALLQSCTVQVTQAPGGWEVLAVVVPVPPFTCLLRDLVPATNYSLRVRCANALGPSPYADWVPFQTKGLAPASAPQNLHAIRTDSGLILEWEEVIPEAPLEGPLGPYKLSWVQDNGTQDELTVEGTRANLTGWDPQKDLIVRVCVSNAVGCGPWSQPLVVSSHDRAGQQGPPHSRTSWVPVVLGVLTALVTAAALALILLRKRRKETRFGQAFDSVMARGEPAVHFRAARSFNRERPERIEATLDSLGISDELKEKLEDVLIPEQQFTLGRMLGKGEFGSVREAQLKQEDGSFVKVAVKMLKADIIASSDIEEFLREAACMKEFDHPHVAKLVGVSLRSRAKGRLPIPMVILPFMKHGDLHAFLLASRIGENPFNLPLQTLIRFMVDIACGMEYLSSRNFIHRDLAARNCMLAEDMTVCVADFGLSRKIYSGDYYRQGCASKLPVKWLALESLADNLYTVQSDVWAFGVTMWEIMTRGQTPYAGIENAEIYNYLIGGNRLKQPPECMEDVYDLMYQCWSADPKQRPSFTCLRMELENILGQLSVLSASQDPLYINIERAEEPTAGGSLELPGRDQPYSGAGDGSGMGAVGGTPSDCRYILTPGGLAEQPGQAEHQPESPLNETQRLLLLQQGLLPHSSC
In short: as §1

CIT = CIT (Homo sapiens, UniProt O14578); settings: competition binding, % of control; read-out: Percent Control (100 uM Levosimendan)
In short: as §1

HCK = HCK (Homo sapiens, UniProt P08631); settings: competition binding, % of control
HCK, sequence (P08631 whole entry): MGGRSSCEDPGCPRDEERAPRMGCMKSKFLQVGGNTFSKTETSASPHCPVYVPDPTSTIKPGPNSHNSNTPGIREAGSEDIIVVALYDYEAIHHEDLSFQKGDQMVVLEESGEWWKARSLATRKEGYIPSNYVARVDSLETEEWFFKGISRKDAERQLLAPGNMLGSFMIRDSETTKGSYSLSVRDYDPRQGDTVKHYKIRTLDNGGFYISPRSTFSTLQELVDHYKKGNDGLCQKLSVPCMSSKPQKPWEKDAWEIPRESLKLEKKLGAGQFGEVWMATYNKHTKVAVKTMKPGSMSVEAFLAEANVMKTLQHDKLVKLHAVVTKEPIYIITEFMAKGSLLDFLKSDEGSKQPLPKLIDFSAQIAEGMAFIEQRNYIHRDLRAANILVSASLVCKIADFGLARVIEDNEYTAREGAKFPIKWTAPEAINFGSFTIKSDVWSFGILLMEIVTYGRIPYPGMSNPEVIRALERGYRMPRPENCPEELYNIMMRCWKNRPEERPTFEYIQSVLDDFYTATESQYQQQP
In short: as §1

NIM1 = biological target: T2, NIM1 (Homo sapiens, UniProt Q8IY84); settings: competition binding, % of control; read-out: Percent Control (100 uM Levosimendan)
T2 construct: gene NIM1K
In short: as §1

[2] = biological target: T3, RSK2(Kin.Dom.1-N-terminal) (Homo sapiens, UniProt P51812); settings: competition binding, % of control
T3 construct: gene RPS6KA3; Kin.Dom.1-N-terminal
T3 sequence (P51812 whole entry): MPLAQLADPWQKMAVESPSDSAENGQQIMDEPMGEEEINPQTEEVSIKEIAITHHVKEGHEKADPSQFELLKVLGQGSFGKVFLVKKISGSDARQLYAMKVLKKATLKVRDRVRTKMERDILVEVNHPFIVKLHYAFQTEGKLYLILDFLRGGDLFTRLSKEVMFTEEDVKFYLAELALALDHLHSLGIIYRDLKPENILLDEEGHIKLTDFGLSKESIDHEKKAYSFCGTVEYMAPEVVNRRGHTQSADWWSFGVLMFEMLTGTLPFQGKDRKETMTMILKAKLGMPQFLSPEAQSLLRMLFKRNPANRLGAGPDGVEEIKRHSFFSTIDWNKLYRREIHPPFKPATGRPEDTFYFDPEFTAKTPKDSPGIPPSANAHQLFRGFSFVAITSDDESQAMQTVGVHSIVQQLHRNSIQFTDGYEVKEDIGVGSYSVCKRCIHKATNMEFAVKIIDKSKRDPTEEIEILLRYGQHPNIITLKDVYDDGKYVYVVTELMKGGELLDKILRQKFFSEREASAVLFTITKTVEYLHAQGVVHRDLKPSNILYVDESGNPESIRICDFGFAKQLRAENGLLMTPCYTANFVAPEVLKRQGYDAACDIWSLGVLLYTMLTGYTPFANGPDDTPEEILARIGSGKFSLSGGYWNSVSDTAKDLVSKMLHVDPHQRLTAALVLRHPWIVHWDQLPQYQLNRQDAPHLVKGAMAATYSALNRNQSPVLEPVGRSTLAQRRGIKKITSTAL
In short: as §1

[3] = biological target: T4, RPS6KA5(Kin.Dom.1-N-terminal) (Homo sapiens, UniProt O75582); settings: competition binding, % of control; read-out: Percent Control (100 uM Levosimendan)
T4 construct: Kin.Dom.1-N-terminal
T4 sequence (O75582 whole entry): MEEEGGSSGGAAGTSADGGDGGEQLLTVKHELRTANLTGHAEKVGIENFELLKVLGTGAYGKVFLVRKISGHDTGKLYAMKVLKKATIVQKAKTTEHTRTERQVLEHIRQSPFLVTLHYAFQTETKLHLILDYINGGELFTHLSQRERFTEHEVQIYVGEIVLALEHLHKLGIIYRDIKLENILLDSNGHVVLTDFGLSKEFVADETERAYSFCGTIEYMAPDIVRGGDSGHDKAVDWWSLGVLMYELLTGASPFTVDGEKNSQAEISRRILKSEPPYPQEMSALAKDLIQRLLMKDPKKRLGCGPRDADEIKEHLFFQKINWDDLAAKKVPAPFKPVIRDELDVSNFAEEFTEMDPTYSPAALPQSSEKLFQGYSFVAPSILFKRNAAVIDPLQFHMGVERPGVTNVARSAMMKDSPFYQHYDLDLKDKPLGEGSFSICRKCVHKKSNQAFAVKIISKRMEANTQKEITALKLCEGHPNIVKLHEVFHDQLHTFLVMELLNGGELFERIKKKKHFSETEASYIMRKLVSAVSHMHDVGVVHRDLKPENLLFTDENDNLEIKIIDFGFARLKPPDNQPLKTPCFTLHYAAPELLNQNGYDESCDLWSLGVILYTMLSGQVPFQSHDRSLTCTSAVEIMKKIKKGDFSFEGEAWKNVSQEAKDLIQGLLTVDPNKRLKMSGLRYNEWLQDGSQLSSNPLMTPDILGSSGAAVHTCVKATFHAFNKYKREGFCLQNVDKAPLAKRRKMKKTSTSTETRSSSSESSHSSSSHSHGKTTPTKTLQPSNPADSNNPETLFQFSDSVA
In short: as §1

TEC = TEC (Homo sapiens, UniProt P42680); settings: competition binding, % of control; read-out: Percent Control (100 uM Levosimendan)
In short: as §1

FAK = biological target: T5, FAK (Homo sapiens, UniProt Q05397); settings: competition binding, % of control; read-out: Percent Control (100 uM Levosimendan)
T5 construct: gene PTK2
In short: as §1

CLK3 = CLK3 (Homo sapiens, UniProt P49761); settings: competition binding, % of control; read-out: Percent Control (100 uM Levosimendan)
In short: as §1

TGFBR2 = TGFBR2 (Homo sapiens, UniProt P37173); settings: competition binding, % of control; read-out: Percent Control (100 uM Levosimendan)
In short: as §1

[4] = read-out: Percent Control (10 uM Levosimendan)
[5] = read-out: Percent Control (100 uM Levosimendan)

Compound: C[C@@H]1CC(=O)NN=C1c1ccc(NN=C(C#N)C#N)cc1 [levosimendan]
- remaining binding at 100 µM (CAMKK2): 54%
- remaining binding at 100 µM (SGK2): 90%
- remaining binding at 100 µM [1]: 100%
- remaining binding at 100 µM (PLK2): 72%
- remaining binding at 100 µM (EPHB2): 77%
- remaining binding at 10 µM (PHKG2; [4]): 55%
- remaining binding at 100 µM (PHKG2; [5]): 47%
- remaining binding at 100 µM (VRK2): 69%
- remaining binding at 100 µM (SRPK2): 100%
- remaining binding at 100 µM (TYRO3): 94%
- remaining binding at 100 µM (CIT): 59%
- remaining binding at 10 µM (HCK; [4]): 98%
- remaining binding at 100 µM (HCK; [5]): 24%
- remaining binding at 100 µM (NIM1): 65%
- remaining binding at 10 µM [2, 4]: 85%
- remaining binding at 100 µM [2, 5]: 35%
- remaining binding at 100 µM [3]: 62%
- remaining binding at 100 µM (TEC): 74%
- remaining binding at 100 µM (FAK): 89%
- remaining binding at 100 µM (CLK3): 68%
- remaining binding at 100 µM (TGFBR2): 89%
